We go through one compound from PMC12721191, “Oxidative hypoxia drives TGF-β1–induced fibrosis under normoxia” (Redox Biology, 2025).

The structures appear in SMILES notation.

The subject of series [1] is MRC-5. The experiment in a line: Western blot of fibrosis markers in MRC-5. It counts as cell-based, human. Particulars: MRC-5, TGF-β1 and ACF-2 co-treatment. The protocol:
RIPA lysates (BCA-normalized) were resolved by SDS-PAGE, transferred to nitrocellulose, and probed with the antibodies listed in Appendix S2. Protocols & Materials.
Cells were lysed in RIPA buffer supplemented with a Protease Inhibitor Cocktail. Protein concentrations were determined using the SMART™ BCA Protein Assay Kit. Equal amounts of protein were separated by SDS-PAGE and transferred onto nitrocellulose membranes. Membranes were blocked with 5% skim milk in TBST and incubated overnight at 4 °C with the primary antibodies indicated below. Membranes were then washed and incubated for 1 hr at room temperature with the appropriate secondary antibodies. Protein bands were visualized using the Davinch Western Imaging system according to the manufacturer’s instructions. Band intensities were quantified using ImageJ software after background subtraction. The signal intensity of each target protein was normalized to the corresponding GAPDH band, and values were further normalized to the control group (set to 1 for each independent experiment).
(In western blotting, separated proteins are transferred to a membrane and probed.)

In series [2] the test system is colon. Briefly: Colonic histopathology in the BLM mouse study. To be noted: BLM mice; ACF-2 10 mg/kg i.p. every 2 days or NIDB 60 mg/kg/day. It counts as in vivo, ICR mice. An excerpt: Fixed left lung lobes were paraffin-embedded, sectioned (4 μm), and stained with H&E or MT. A blinded pathologist graded pulmonary fibrosis on the 1-8 Ashcroft scale; representative images illustrate typical lesions. Colon samples were processed by the swiss-roll method, stained with H&E, and scored for inflammation and erosion, which were combined into a composite histological score. All animal studies were approved by the Institutional Animal Care and Use Committee of Jeju National University (Approval ID: 2024-0058) and conducted in compliance with institutional guidelines. Male ICR mice (6 weeks old, average body weight 27 g) were purchased from […] (South Korea) and housed under controlled temperature (22 ± 2 °C) and humidity (0.0 ± 15.0 %) on a 12 hr light-dark cycle with free access to food and water. […] Colon tissue: Colons were harvested, flushed with 1xPBS, and prepared using the swiss-roll method before embedding in paraffin. Sections of 4 μm thickness were subjected to H&E staining as described above. Colonic injury was evaluated by two independent parameters: (i) inflammation score (0-3) and (ii) erosion score (0-3). A composite histological score was then calculated as the sum of inflammation and erosion scores for each sample.

For series [3], the system named is A549. The experiment in a line: Western blot of HIF-1α, fibrosis and EMT markers in A549. Format: cell-based, human.

As to `COc1ccc(-c2c(-c3ccc(O)c(OC)c3)oc3cc(OC)c(OC)cc3c2=O)cc1` [ACF-2], the “Fibronectin, COL4A6, α-SMA (Western blot)” value in series [1] is “same dose-dependent antifibrotic response”. In addition, the “composite histological score of colon (inflammation + erosion)” value in series [2] is recorded as “did not induce colonic inflammation or erosion”. For the same compound, the “BLM-induced HIF-1α levels (Western blot)” value in series [3] (A549, BLM 15 μM, 10 h) is on record as “effectively suppressed”. The “fibronectin, α-SMA, N-cadherin (Western blot)” value in series [3] (A549, TGF-β1 24 h, ACF-2 7 μM) was “coordinated suppression of fibrosis markers (fibronectin, α-SMA) and EMT marker (N-cadherin)”. Moreover, the “COL3A1 and COL4A6 (Western blot)” value in series [3] (A549, TGF-β1 24 h, ACF-2 co-treatment) is “dose-dependent reduction of fibrosis markers COL3A1 and COL4A6”.
